Where two headings read alike, the source gives them in different places.
Key:
S. aureus ATCC 29213 [1] = assay: Minimum inhibitory concentration (MIC) assay; assay type: cell-based, Staphylococcus aureus
Excerpt: (§1) (a) Minimum Inhibitory Concentration (MIC) Assay
(§2) The culture media were as described above.
(§3) The assays included both negative (culture medium with no micro-organisms) and positive (culture medium plus diluting solvent plus micro-organism) controls.

P. acnes NCTC 737 [2] = assay: Disc diffusion assay (DDA), also supplemented;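 note: paper disc carrying compound placed on inoculated Wilkins-Chalgren Anaerobe agar pH 6.0, with lipid or NaCl supplement where listed, anaerobic 37 °C for 72 h, inhibition zone diameter read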
Method: (§6) The propionibacteria were cultured and maintained on Wilkins-Chalgren Anaerobe Medium (agar and broth) at pH 6.0; all cultures were incubated anaerobically at 37° C. for 72 hours.
(d) Disc Diffusion Assay (DDA)
A sterile paper disc was impregnated with a sample of the test compound in a suitable solvent and 30 minutes allowed for the solvents to evaporate (where possible). The disc was then placed on an agar plate onto which the test micro-organism had been inoculated. The plate was then incubated under the conditions described above, following which it was examined visually for signs of bacterial growth. […] The diameter of this zone of “inhibition” was measured using a ProtoCOL™ automated zone sizer (Synbiosis, Cambridge, UK).
(f) Supplemented Disc Diffusion Assays
(§7) For assays using Propionibacterium spp. strains the supplements used in the examples below were lipid (either Tween™ 80 or triolein, both at 1% v/v) and sodium chloride (100 mM).

S. aureus ATCC 29213 [3] = assay: Disc diffusion assay (DDA), also supplemented
S. aureus ATCC 29213 [4] = assay: Synergy disc diffusion assay (SDDA), also supplemented;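 note: disc diffusion on Mueller-Hinton agar at pH 7.2, aerobic incubation at 37 °C lasting 19-20 h, two compounds assessed jointly for combined antimicrobial effect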
Method: (e) Synergy Disc Diffusion Assay (SDDA)
(§8) This is a variation on the DDA method, in which two compounds are tested together for their combined antimicrobial activity.
(§9) Two test compounds A and B were placed on a single paper disc and the above described DDA procedure repeated.
(f) Supplemented Disc Diffusion Assays
For assays using S. aureus ATCC 29213 the supplements used were sodium chloride (100 mM), lipid (Tween™ 80 at 1% v/v) and horse serum (5% v/v).

P. acnes NCTC 737 [5] = assay: Minimum inhibitory concentration (MIC) assay; assay type: cell-based, Propionibacterium acnes
Excerpt: as §1, §2, §3

P. acnes NCTC 737 [6] = assay: Synergy disc diffusion assay (SDDA), also supplemented
Method: as §6
(e) Synergy Disc Diffusion Assay (SDDA)
as §8, §9
(f) Supplemented Disc Diffusion Assays
as §7

S. aureus ATCC 29213 [7] = assay: Minimum bactericidal concentration (MBC) assay; assay type: cell-based, Staphylococcus aureus
Method: (§4) (b) Minimum Bactericidal Concentration (MBC) Assay
(§5) Following incubation they were examined visually for bacterial growth.

P. acnes NCTC 737 [8] = assay: Minimum bactericidal concentration (MBC) assay; assay type: cell-based, Propionibacterium acnes
Method: as §4, §5

[9] = copper salt alone, S. aureus ATCC 29213
[10] = copper salt alone, 200 μg per disc (silicate 62 μg), 1% (v/v) Tween 80
[11] = copper salt alone, 200 μg per disc (silicate 62 μg), salt and 1% (v/v) Tween 80
[12] = copper salt alone, 200 μg per disc (silicate 62 μg), sodium chloride (100 mM)
[13] = copper salt alone, 200 μg per disc (silicate 62 μg), Tween 80 at 1% v/v
[14] = copper salt alone, 200 μg per disc (silicate 62 μg), salt and horse serum (5% v/v)
[15] = copper salt + TBHQ on one disc, 200 μg of each (silicate 62 μg), salt and serum supplements
[16] = copper salt + TBHQ on one disc, 200 μg of each (silicate 62 μg), unsupplemented
[17] = copper salt + TBHQ vs larger zone of either compound alone, unsupplemented
[18] = copper salt + TBHQ, salt and serum supplements
[19] = copper salt + TBHQ, unsupplemented
[20] = copper salt alone, P. acnes NCTC 737
[21] = copper salt + TBHQ on one disc, 200 μg of each (silicate 62 μg), salt and lipid (1% (v/v) Tween 80)
[22] = copper salt + TBHQ, salt and lipid (1% (v/v) Tween 80)

[Cl-].[Cu+2].[Cu+2].[OH-].[OH-].[OH-] [Copper (II) oxychloride]
MIC (S. aureus ATCC 29213 [1]; [9]): >250 µg/mL
DDA (P. acnes NCTC 737 [2]): 51.21 mm
DDA + lipid (P. acnes NCTC 737 [2]; [10]): 51.65 mm
DDA + salt & lipid (P. acnes NCTC 737 [2]; [11]): 52.04 mm
DDA + salt (P. acnes NCTC 737 [2]; [12]): 54.47 mm
DDA (S. aureus ATCC 29213 [3]): 0 mm
DDA + lipid (S. aureus ATCC 29213 [3]; [13]): 0 mm
DDA + salt & serum (S. aureus ATCC 29213 [3]; [14]): 0 mm
DDA + salt (S. aureus ATCC 29213 [3]; [12]): 0 mm
SS SDDA with TBHQ (S. aureus ATCC 29213 [4]; [15]): 43.89 mm
SDDA with TBHQ (S. aureus ATCC 29213 [4]; [16]): 52.63 mm
SDDA increase (S. aureus ATCC 29213 [4]; [17]): 12.21 mm
SS SDDA area increase (S. aureus ATCC 29213 [4]; [18]): 0.96%
SS SDDA increase (S. aureus ATCC 29213 [4]; [18]): 0.21 mm
SDDA area increase (S. aureus ATCC 29213 [4]; [19]): 69.54%
MIC (P. acnes NCTC 737 [5]; [20]): 0.98 µg/mL
MIC/MBC ratio (P. acnes NCTC 737 [5]; [20]): 0.06
SL SDDA with TBHQ (P. acnes NCTC 737 [6]; [21]): 54.02 mm
SDDA with TBHQ (P. acnes NCTC 737 [6]; [16]): 59.45 mm
SDDA increase (P. acnes NCTC 737 [6]; [17]): 8.24 mm
SL SDDA area increase (P. acnes NCTC 737 [6]; [22]): 7.76%
SL SDDA increase (P. acnes NCTC 737 [6]; [22]): 1.98 mm
SDDA area increase (P. acnes NCTC 737 [6]; [19]): 34.77%
MBC (S. aureus ATCC 29213 [7]; [9]): >250 µg/mL
MBC (P. acnes NCTC 737 [8]; [20]): 15.6 µg/mL

Copper (II) salicylate
MIC (S. aureus ATCC 29213 [1]): 250 µg/mL
MIC/MBC ratio (S. aureus ATCC 29213 [1]): <1
DDA (P. acnes NCTC 737 [2]): 47.77 mm
DDA + lipid (P. acnes NCTC 737 [2]): 41.75 mm
DDA + salt (P. acnes NCTC 737 [2]): 46.08 mm
DDA + salt & lipid (P. acnes NCTC 737 [2]): 50.69 mm
DDA (S. aureus ATCC 29213 [3]): 0 mm
DDA + lipid (S. aureus ATCC 29213 [3]): 0 mm
DDA + salt (S. aureus ATCC 29213 [3]): 0 mm
DDA + salt & serum (S. aureus ATCC 29213 [3]): 0 mm
SDDA area increase (S. aureus ATCC 29213 [4]): 61.52%
SDDA increase (S. aureus ATCC 29213 [4]): 10.95 mm
SDDA with TBHQ (S. aureus ATCC 29213 [4]): 51.37 mm
SS SDDA area increase (S. aureus ATCC 29213 [4]): 9.37%
SS SDDA increase (S. aureus ATCC 29213 [4]): 2.00 mm
SS SDDA with TBHQ (S. aureus ATCC 29213 [4]): 45.68 mm
MIC (P. acnes NCTC 737 [5]): 7.8 µg/mL
MIC/MBC ratio (P. acnes NCTC 737 [5]): 0.25
SDDA area increase (P. acnes NCTC 737 [6]): 150.52%
SDDA increase (P. acnes NCTC 737 [6]): 27.84 mm
SDDA with TBHQ (P. acnes NCTC 737 [6]): 75.61 mm
SL SDDA area increase (P. acnes NCTC 737 [6]): 84.98%
SL SDDA increase (P. acnes NCTC 737 [6]): 18.25 mm
SL SDDA with TBHQ (P. acnes NCTC 737 [6]): 68.94 mm
MBC (S. aureus ATCC 29213 [7]): >250 µg/mL
MBC (P. acnes NCTC 737 [8]): 31.25 µg/mL

[Cu][Br] [Copper (I) bromide]
MIC (S. aureus ATCC 29213 [1]; [9]): >250 µg/mL
DDA + lipid (P. acnes NCTC 737 [2]; [10]): 43.92 mm
DDA + salt & lipid (P. acnes NCTC 737 [2]; [11]): 43.70 mm
DDA + salt (P. acnes NCTC 737 [2]; [12]): 29.38 mm
DDA + lipid (S. aureus ATCC 29213 [3]; [13]): 0 mm
DDA + salt & serum (S. aureus ATCC 29213 [3]; [14]): 0 mm
DDA + salt (S. aureus ATCC 29213 [3]; [12]): 0 mm
SS SDDA with TBHQ (S. aureus ATCC 29213 [4]; [15]): 46.42 mm
SDDA with TBHQ (S. aureus ATCC 29213 [4]; [16]): 55.37 mm
SDDA increase (S. aureus ATCC 29213 [4]; [17]): 14.95 mm
SS SDDA area increase (S. aureus ATCC 29213 [4]; [18]): 12.94%
SS SDDA increase (S. aureus ATCC 29213 [4]; [18]): 2.74 mm
SDDA area increase (S. aureus ATCC 29213 [4]; [19]): 87.65%
MIC (P. acnes NCTC 737 [5]; [20]): 15.6 µg/mL
MIC/MBC ratio (P. acnes NCTC 737 [5]; [20]): 0.125
SL SDDA with TBHQ (P. acnes NCTC 737 [6]; [21]): 56.01 mm
SDDA with TBHQ (P. acnes NCTC 737 [6]; [16]): 54.65 mm
SDDA increase (P. acnes NCTC 737 [6]; [17]): 15.44 mm
SL SDDA area increase (P. acnes NCTC 737 [6]; [22]): 64.26%
SL SDDA increase (P. acnes NCTC 737 [6]; [22]): 12.31 mm
SDDA area increase (P. acnes NCTC 737 [6]; [19]): 94.26%
MBC (S. aureus ATCC 29213 [7]; [9]): >250 µg/mL
MBC (P. acnes NCTC 737 [8]; [20]): 125 µg/mL
